Reference: US9663496B2, “AMPK-activating heterocyclic compounds and methods for using the same” (Rigel Pharmaceuticals, Inc., priority 2010, dated 2017)
pEC50: −log10 of the molar value.

Biological target: AMPK
Experiment: AMPK activation, enzyme-linked immunosorbent assay
Assay type: biochemical
Settings: EC50 for AMPK activation, ELISA
In short: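 Activation by each compound is measured using a conventional commercial immunoassay kit.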

SMILES | pEC50
O=C(Nc1ccc(C(=O)N2CCN(Cc3ccc(F)cc3)CC2)cn1)c1ccc(Oc2ccc(F)cc2)nc1 [Compound 177, N-(5-(4-(4-fluorobenzyl)piperazine-1-carbonyl)pyridin-2-yl)-6-(4-fluorophenoxy) nicotinamide] | 5.30 to 6.00
COc1ccc(C(=O)C2CCN(C(=O)c3ccc(C(=O)NC4CCN(Cc5cccc(OC)c5)CC4)cn3)CC2)cc1 [Compound 425, 6-(4-(4-methoxybenzoyl)piperidine-1-carbonyl)-N-(1-(3-methoxybenzyl)piperidin-4-yl)nicotinamide] | > 6.30
N#Cc1ccc(CN2CCC(NC(=O)c3ncc(C(=O)N4CCN(Cc5ccc(F)cc5)CC4)cc3CCCNC(=O)CCOCCOCCOCCOCCNC(=O)CCCC[C@@H]3SC[C@@H]4NC(=O)N[C@@H]43)CC2)cc1 [Compound 291, N-(1-(4-cyanobenzyl)piperidin-4-yl)-3-(5,21-dioxo-25-((3aS,4S,6aR)-2-oxohexahydro-1H-thieno[3,4-d]imidazol-4-yl)-8,11,14,17-tetraoxa-4,20-diazapentacosyl)-5-(4-(4-fluorobenzyl)piperazine-1-carbonyl)picolinamide] | > 6.30
O=C(Nc1ccc(Oc2ccc(F)cc2)nc1)c1ccc(C(=O)N2CCC(C(=O)c3ccc(F)cc3F)CC2)cn1 [Compound 342, 5-(4-(2,4-difluorobenzoyl)piperidine-1-carbonyl)-N-(6-(4-fluorophenoxy)pyridin-3-yl)picolinamide] | > 6.30
N#Cc1ccc(OC2CCN(C(=O)c3ccc(C(=O)NC4CCN(Cc5cc(F)cc(F)c5)CC4)nc3)CC2)cc1 [Compound 289, 5-(4-(4-cyanophenoxy)piperidine-1-carbonyl)-N-(1-(3,5-difluorobenzyl)piperidin-4-yl)picolinamide] | > 6.30
N#Cc1ccc(CN2CCC(NC(=O)c3ccc(C(=O)N4CCC(C(=O)c5ccc(N6CCOCC6)cc5)CC4)cn3)CC2)cc1 [Compound 376, N-(1-(4-cyanobenzyl)piperidin-4-yl)-5-(4-(4-morpholinobenzoyl)piperidine-1-carbonyl)picolinamide] | > 6.30
N#Cc1ccc(OC2CCN(C(=O)c3ccc(C(=O)NC4CCN(c5ccc(C#N)cc5)CC4)cn3)CC2)cc1 [Compound 418, 6-(4-(4-cyanophenoxy)piperidine-1-carbonyl)-N-(1-(4-cyanophenyl)piperidin-4-yl)nicotinamide] | > 6.30
O=C(Nc1ccc(Oc2ccc(F)cc2)nc1)c1ccc(C(=O)N2CCC(Oc3cccc(NC(=O)C4CC4)c3)CC2)nc1 [Compound 433, 6-(4-(3-(cyclopropanecarboxamido)phenoxy)piperidine-1-carbonyl)-N-(6-(4-fluorophenoxy)pyridin-3-yl)nicotinamide] | > 6.30
N#Cc1ccc(O[C@H]2CC[C@@H](NC(=O)c3ccc(C(=O)N4CCC(C(=O)c5ccc(F)cc5)CC4)cn3)CC2)cc1 [Compound 151] | > 6.30
CC(=O)c1ccc(Oc2ccc(NC(=O)c3ccc(C(=O)N4CCC(S(=O)(=O)c5ccc(F)cc5)CC4)nc3)cn2)cc1 [Compound 473, N-(6-(4-acetylphenoxy)pyridin-3-yl)-6-(4-(4-fluorophenylsulfonyl)piperidine-1-carbonyl)nicotinamide] | 5.30 to 6.00
COc1ccc(C(=O)C2CCN(C(=O)c3ccc(C(=O)NC4CCN(Cc5ccc(NC(C)=O)cc5)CC4)cn3)CC2)cc1 [Compound 401, N-(1-(4-acetamidobenzyl)piperidin-4-yl)-6-(4-(4-methoxybenzoyl)piperidine-1-carbonyl)nicotinamide] | 5.30 to 6.00
N#Cc1ccc(CN2CCC(NC(=O)c3ccc(C(=O)N4CCN(c5ccc(S(=O)(=O)C6CC6)cc5)CC4)cn3)CC2)cc1 [Compound 256, N-(1-(4-cyanobenzyl)piperidin-4-yl)-5-(4-(4-(cyclopropylsulfonyl)phenyl)piperazine-1-carbonyl)picolinamide] | > 6.30
COc1ccc(C(=O)C2CCN(c3ccc(C(=O)N4CCN(Cc5ccc(F)cc5)CC4)cn3)CC2)cc1 [Compound 189, (4-(4-fluorobenzyl)piperazin-1-yl)(6-(4-(4-methoxybenzoyl)piperidin-1-yl)pyridin-3-yl)methanone] | 5.30 to 6.00
N#Cc1ccc(CN2CCC(NC(=O)c3ccc(C(=O)N4CCC(Oc5ccc(S(=O)(=O)C(F)(F)F)cc5)CC4)cn3)CC2)cc1 [Compound 415, N-(1-(4-cyanobenzyl)piperidin-4-yl)-5-(4-(4-(trifluoromethylsulfonyl)phenoxy)piperidine-1-carbonyl)picolinamide] | > 6.30
N#Cc1ccc(CN2CC[C@@H](NC(=O)c3ccc(C(=O)N4CCN(Cc5ccc(F)cc5)CC4)cn3)[C@@H](F)C2)cc1 [Compound 100] | > 6.30
CSc1ccc(C(=O)C2CCN(C(=O)c3ccc(C(=O)NC4CCN(Cc5ccc(C#N)cc5)CC4)nc3)CC2)cc1 [Compound 372, N-(1-(4-cyanobenzyl)piperidin-4-yl)-5-(4-(4-(methylthio)benzoyl)piperidine-1-carbonyl)picolinamide] | > 6.30
CS(=O)(=O)c1ccc(CN2CCC(NC(=O)c3ccc(C(=O)N4CCC(C(=O)c5ccc(F)cc5F)CC4)nc3)CC2)cc1 [Compound 213, 6-(4-(2,4-difluorobenzoyl)piperidine-1-carbonyl)-N-(1-(4-(methylsulfonyl)benzyl)piperidin-4-yl)nicotinamide] | > 6.30

SMILES | pEC50
N#Cc1ccc(OC2CCN(c3ccc(C(=O)N4CCN(Cc5ccc(F)cc5)CC4)cn3)CC2)cc1 [Compound 188, 4-(1-(5-(4-(4-fluorobenzyl)piperazine-1-carbonyl)pyridin-2-yl)piperidin-4-yloxy)benzonitrile] | 6.00 to 6.30
CS(=O)(=O)c1ccc(OC2CCN(C(=O)c3ccc(C(=O)NC4CCN(Cc5ccc(C#N)cc5)CC4)nc3)CC2)cc1 [Compound 227, N-(1-(4-cyanobenzyl)piperidin-4-yl)-5-(4-(4-(methylsulfonyl)phenoxy)piperidine-1-carbonyl)picolinamide] | > 6.30
O=C(NC1CCN(Cc2ccc(F)cc2)CC1)c1ccc(C(=O)N2CCC(Oc3ccc(C(F)(F)F)cc3)CC2)cn1 [Compound 179, N-(1-(4-fluorobenzyl)piperidin-4-yl)-5-(4-(4-(trifluoromethyl)phenoxy)piperidine-1-carbonyl)picolinamide] | > 6.30
O=C(NC1CCN(Cc2ccccc2)CC1)c1ccc(C(=O)N2CCN(c3ccncc3)CC2)cn1 [Compound 96, N-(1-benzylpiperidin-4-yl)-5-(4-(pyridin-4-yl)piperazine-1-carbonyl)picolinamide] | < 5.00
O=C(NC1CCN(Cc2ccc(OC(F)(F)F)cc2)CC1)c1ccc(C(=O)N2CCC(S(=O)(=O)c3ccc(F)cc3)CC2)nc1 [Compound 470, 6-(4-(4-fluorophenylsulfonyl)piperidine-1-carbonyl)-N-(1-(4-(trifluoromethoxy)benzyl)piperidin-4-yl)nicotinamide] | > 6.30
O=C(NCc1ccccc1)c1ccc(C(=O)N2CCN(Cc3ccc(F)cc3)CC2)cn1 [Compound 115, N-benzyl-5-(4-(4-fluorobenzyl)piperazine-1-carbonyl)picolinamide] | 5.00 to 5.30
O=C(NC1CCN(Cc2ccc(N3CCCC3)cc2)CC1)c1ccc(C(=O)N2CCC(Oc3ccc(S(=O)(=O)C4CC4)cc3)CC2)nc1 [Compound 248, 6-(4-(4-(cyclopropylsulfonyl)phenoxy)piperidine-1-carbonyl)-N-(1-(4-(pyrrolidin-1-yl)benzyl)piperidin-4-yl)nicotinamide] | > 6.30
O=C(NC1CCN(Cc2ccc(F)cc2)CC1)c1ccc(C(=O)N2CC[C@H](Oc3ccc(F)cc3)C2)cn1 [Compound 182, (S)-N-(1-(4-fluorobenzyl)piperidin-4-yl)-5-(3-(4-fluorophenoxy)pyrrolidine-1-carbonyl)picolinamide] | > 6.30
O=C(N[C@H]1CC[C@@H](Oc2ccc(F)cc2)CC1)c1ccc(C(=O)N2CCC(C(=O)c3ccc(F)cc3)CC2)cn1 [Compound 304, 5-(4-(4-fluorobenzoyl)piperidine-1-carbonyl)-N-((cis)-4-(4-fluorophenoxy)cyclohexyl)picolinamide] | > 6.30
CC(C)(C)OC(=O)NCC#Cc1cc(C(=O)N2CCN(Cc3ccc(F)cc3)CC2)cnc1C(=O)NC1CCN(Cc2ccc(C#N)cc2)CC1 [Compound 164, tert-butyl 3-(2-(1-(4-cyanobenzyl)piperidin-4-ylcarbamoyl)-5-(4-(4-fluorobenzyl)piperazine-1-carbonyl)pyridin-3-yl)prop-2-ynylcarbamate] | 6.00 to 6.30
CS(=O)(=O)c1ccc(OC2CCN(C(=O)c3ccc(C(=O)Nc4ccc(S(=O)(=O)c5ccc(F)cc5)nc4)nc3)CC2)cc1 [Compound 261, N-(6-(4-fluorophenylsulfonyl)pyridin-3-yl)-5-(4-(4-(methylsulfonyl)phenoxy)piperidine-1-carbonyl)picolinamide] | > 6.30
O=C(Nc1ccc(Oc2ccc(F)cc2)nc1)c1ccc(C(=O)N2CCC(Oc3ccc(S(=O)(=O)C4CC4)cc3)CC2)nc1 [Compound 247, 6-(4-(4-(cyclopropylsulfonyl)phenoxy)piperidine-1-carbonyl)-N-(6-(4-fluorophenoxy)pyridin-3-yl)nicotinamide] | > 6.30
O=C(c1cccc(C(=O)N2CCN(Cc3ccc(F)cc3)CC2)n1)N1CCN(CCc2ccccc2)CC1 [Compound 93, (4-(4-fluorobenzyl)piperazin-1-yl)(6-(4-phenethylpiperazine-1-carbonyl)pyridin-2-yl)methanone] | < 5.00
COc1ccc(OC2CCN(C(=O)c3ccc(C(=O)NC4CCN(Cc5ccc(N6CCCC6)cc5)CC4)nc3)CC2)cc1 [Compound 195, 5-(4-(4-methoxyphenoxy)piperidine-1-carbonyl)-N-(1-(4-(pyrrolidin-1-yl)benzyl)piperidin-4-yl)picolinamide] | > 6.30
O=C(Nc1ccc(Oc2ccc(F)cc2)nc1)c1ccc(C(=O)N2CCN(Cc3ccc(F)cc3)CC2)nc1 [Compound 334, 6-(4-(4-fluorobenzyl)piperazine-1-carbonyl)-N-(6-(4-fluorophenoxy)pyridin-3-yl)nicotinamide] | > 6.30
O=C(Nc1ccc(Oc2ccc(F)cc2)nc1)c1ccc(C(=O)N2CCC(C(=O)c3ccc(N4CCCC4)cc3)CC2)cn1 [Compound 368, N-(6-(4-fluorophenoxy)pyridin-3-yl)-5-(4-(4-(pyrrolidin-1-yl)benzoyl)piperidine-1-carbonyl)picolinamide] | > 6.30
